Laboratory results published in article PMC8287927, “Evidence for a chromosome origin unwinding system broadly conserved in bacteria” (Nucleic Acids Research, 2021).

Biological target: T1, B. subtilis DnaA (Bacillus subtilis, UniProt P05648)
T1 construct: full-length, cloned in pSP015 with His14-SUMO-FLAG3 tag; His14-SUMO cleaved (FLAG3 kept where present); E. coli BL21(DE3)-pLysS
Assay: competition with TNP-ATP fluorescence
Settings: pH 8, 5 mM magnesium acetate, 25 C; competitive with TNP-ATP, nucleotide binding pocket

T1 sequence (P05648 whole entry): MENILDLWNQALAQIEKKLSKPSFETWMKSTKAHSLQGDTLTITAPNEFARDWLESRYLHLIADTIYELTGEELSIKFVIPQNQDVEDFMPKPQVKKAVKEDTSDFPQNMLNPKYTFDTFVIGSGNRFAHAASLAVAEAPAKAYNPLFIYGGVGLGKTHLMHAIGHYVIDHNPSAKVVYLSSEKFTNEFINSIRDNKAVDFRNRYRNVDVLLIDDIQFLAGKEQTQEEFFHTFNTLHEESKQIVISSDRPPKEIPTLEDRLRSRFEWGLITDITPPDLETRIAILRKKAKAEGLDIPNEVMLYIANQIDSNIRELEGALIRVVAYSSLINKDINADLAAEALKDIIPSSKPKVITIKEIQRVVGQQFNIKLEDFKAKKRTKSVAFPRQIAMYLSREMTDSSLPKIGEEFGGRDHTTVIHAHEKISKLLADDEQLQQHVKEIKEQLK

## Nc1ncnc2c1ncn2[C@@H]1O[C@H](COP(=O)(O)OP(=O)(O)OP(=O)(O)O)[C@@H](O)[C@H]1O [ATP]
  competition with TNP-ATP fluorescence: can be competed away by addition of unlabelled ATP
